Biological target: BCL-2 recombinant protein (Homo sapiens, UniProt P10415)
Experiment: Cell free Bcl-2:Bak affinity assay (Bcl-2 Bak), HTRF competition of FAM-Bak peptide
Format: binding
Conditions: 1 μM compound, 4 nM BCL-2 recombinant protein, 100 nM FAM-Bak, read-out: potency (% inhibition at 1 μM)
Procedure: Biological Assays: Cell Free Bcl-2:Bak Affinity Assay (Bcl-2 Bak)
The assay is based on the competition of fluorescently labeled peptide binding to BCL-2 and the binding is monitored by HTRF signals between anti-GST-Tb and FAM-peptide using GST-Tag BCL proteins. Testing compounds were dissolved in DMSO at 10 mM and tested in 10-concentration IC50 mode. The compounds of interest in DMSO were added in 3-fold serial dilution to each well containing 4 nM of BCL-2 recombinant protein, 20 mM K Phosphate, pH 7.5, 50 mM NaCl, 1 mM EDTA, 0.005% Triton X-100, by using acoustic technology (Labcyte echo 550), After 10 minutes incubation at room temperature, 100 nM of FAM-Bak was added and incubated for another 10 minutes before addition of Anti-GST-Tb. The plate was then sealed and further incubated at room temperature for 60 minutes in the dark before reading. Percentage of inhibition was calculated by % inhibition=100×(FDMSO−F)/(FDMSO−FPC), in which FDMSO is DMSO control and FPC is a positive control. IC50 values were determined from dose-response curve by fitting the percent inhibition against compound concentration using GraphPad Prism software.

BCL-2 recombinant protein, sequence (P10415 whole entry): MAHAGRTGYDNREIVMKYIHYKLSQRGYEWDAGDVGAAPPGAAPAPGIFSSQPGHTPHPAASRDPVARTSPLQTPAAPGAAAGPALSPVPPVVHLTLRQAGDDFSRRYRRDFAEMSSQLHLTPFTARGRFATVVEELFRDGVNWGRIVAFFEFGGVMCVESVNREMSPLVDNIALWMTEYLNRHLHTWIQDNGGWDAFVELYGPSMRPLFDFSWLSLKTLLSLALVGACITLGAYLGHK

inhibition at 1 µM	SMILES
< 50%	CC1(C)CCC(CN2CCN(c3ccc(S(=O)(=O)NC(=O)c4cc(C5CC5)on4)cc3)CC2)=C(c2ccc(Cl)cc2)C1 [Example 12, N-([4-[4-[[2-(4-chlorophenyl)-4,4-dimethylcyclohexen-1-yl]methyl]piperazin-1-yl]phenyl]sulfonyl)-5-cyclopropylisoxazole-3-carboxamide]
50 to 90%	CC1(C)CCC(CN2CCN(c3ccc(S(=O)(=O)NC(=O)c4ccc(Br)cn4)cc3)CC2)=C(c2ccc(Cl)cc2)C1 [Example 13, 5-bromo-N-([4-[4-[[2-(4-chlorophenyl)-4,4-dimethylcyclohexen-1-yl]methyl]piperazin-1-yl]phenyl]sulfonyl)pyridine-2-carboxamide]
50 to 90%	Cc1cc(C(=O)NS(=O)(=O)c2ccc(N3CCN(CC4=C(c5ccc(Cl)cc5)CC(C)(C)CC4)CC3)cc2)[nH]n1 [Example 14, N-([4-[4-[[2-(4-chlorophenyl)-4,4-dimethylcyclohexen-1-yl]methyl]piperazin-1-yl]phenyl]sulfonyl)-3-methyl-1H-pyrazole-5-carboxamide]
50 to 90%	CC1(C)CCC(CN2CCN(c3ccc(S(=O)(=O)NC(=O)c4cccc(Cl)c4)cc3)CC2)=C(c2ccc(Cl)cc2)C1 [Example 15, 3-chloro-N-([4-[4-[[2-(4-chlorophenyl)-4,4-dimethylcyclohexen-1-yl]methyl]piperazin-1-yl]phenyl]sulfonyl)benzamide]
50 to 90%	Cc1nc(C(=O)NS(=O)(=O)c2ccc(N3CCN(CC4=C(c5ccc(Cl)cc5)CC(C)(C)CC4)CC3)cc2)ccc1F [Example 16, N-([4-[4-[[2-(4-chlorophenyl)-4,4-dimethylcyclohexen-1-yl]methyl]piperazin-1-yl]phenyl]sulfonyl)-5-fluoro-6-methyl pyridine-2-carboxamide]
50 to 90%	Cc1onc(C(=O)NS(=O)(=O)c2ccc(N3CCN(CC4=C(c5ccc(Cl)cc5)CC(C)(C)CC4)CC3)cc2)c1C [Example 17, N-([4-[4-[[2-(4-chlorophenyl)-4,4-dimethylcyclohexen-1-yl]methyl]piperazin-1-yl]phenyl]sulfonyl)-4,5-dimethylisoxazole-3-carboxamide]
50 to 90%	COCc1cccc(C(=O)NS(=O)(=O)c2ccc(N3CCN(CC4=C(c5ccc(Cl)cc5)CC(C)(C)CC4)CC3)cc2)c1 [Example 18, N-([4-[4-[[2-(4-chlorophenyl)-4,4-dimethylcyclohexen-1-yl]methyl]piperazin-1-yl]phenyl]sulfonyl)-3-(methoxymethyl)benzamide]
50 to 90%	COCc1ccc(C(=O)NS(=O)(=O)c2ccc(N3CCN(CC4=C(c5ccc(Cl)cc5)CC(C)(C)CC4)CC3)cc2)cc1 [Example 19, N-([4-[4-[[2-(4-chlorophenyl)-4,4-dimethylcyclohexen-1-yl]methyl]piperazin-1-yl]phenyl]sulfonyl)-4-(methoxymethyl)benzamide]
50 to 90%	CC1(C)CCC(CN2CCN(c3ccc(S(=O)(=O)NC(=O)c4ccc(Cl)c(Cl)n4)cc3)CC2)=C(c2ccc(Cl)cc2)C1 [Example 20, 5,6-dichloro-N-([4-[4-[[2-(4-chlorophenyl)-4,4-dimethylcyclohexen-1-yl]methyl]piperazin-1-yl]phenyl]sulfonyl)pyridine-2-carboxamide]
50 to 90%	CC1(C)CCC(CN2CCN(c3ccc(S(=O)(=O)NC(=O)c4cccc(C(F)(F)F)n4)cc3)CC2)=C(c2ccc(Cl)cc2)C1 [Example 21, N-([4-[4-[[2-(4-chlorophenyl)-4,4-dimethylcyclohexen-1-yl]methyl]piperazin-1-yl]phenyl]sulfonyl)-6-(trifluoromethyl)pyridine-2-carboxamide]
50 to 90%	CC1(C)CCC(CN2CCN(c3ccc(S(=O)(=O)NC(=O)c4ccncc4C(F)(F)F)cc3)CC2)=C(c2ccc(Cl)cc2)C1 [Example 22, N-([4-[4-[[2-(4-chlorophenyl)-4,4-dimethylcyclohexen-1-yl]methyl]piperazin-1-yl]phenyl]sulfonyl)-3-(trifluoromethyl)pyridine-4-carboxamide]
50 to 90%	CC1(C)CCC(CN2CCN(c3ccc(S(=O)(=O)NC(=O)c4cncc([N+](=O)[O-])c4)cc3)CC2)=C(c2ccc(Cl)cc2)C1 [Example 23, N-([4-[4-[[2-(4-chlorophenyl)-4,4-dimethylcyclohexen-1-yl]methyl]piperazin-1-yl]phenyl]sulfonyl)-5-nitropyridine-3-carboxamide]
50 to 90%	CC1(C)CCC(CN2CCN(c3ccc(S(=O)(=O)NC(=O)c4ccccn4)cc3)CC2)=C(c2ccc(Cl)cc2)C1 [Example 24, N-([4-[4-[[2-(4-chlorophenyl)-4,4-dimethylcyclohexen-1-yl]methyl]piperazin-1-yl]phenyl]sulfonyl)pyridine-2-carboxamide]
50 to 90%	CC1(C)CCC(CN2CCN(c3ccc(S(=O)(=O)NC(=O)c4cc(-c5ccc(F)cc5)no4)cc3)CC2)=C(c2ccc(Cl)cc2)C1 [Example 25, N-([4-[4-[[2-(4-chlorophenyl)-4,4-dimethylcyclohexen-1-yl]methyl]piperazin-1-yl]phenyl]sulfonyl)-3-(4-fluorophenyl)isoxazole-5-carboxamide]
< 50%	Cc1ccc(CC(=O)NS(=O)(=O)c2ccc(N3CCN(CC4=C(c5ccc(Cl)cc5)CC(C)(C)CC4)CC3)cc2)cn1 [Example 26, N-([4-[4-[[2-(4-chlorophenyl)-4,4-dimethylcyclohexen-1-yl]methyl]piperazin-1-yl]phenyl]sulfonyl)-2-(6-methylpyridin-3-yl)acetamide]
50 to 90%	CC1(C)CCC(CN2CCN(c3ccc(S(=O)(=O)NC(=O)c4ccc5ccsc5n4)cc3)CC2)=C(c2ccc(Cl)cc2)C1 [Example 27, N-([4-[4-[[2-(4-chlorophenyl)-4,4-dimethylcyclohexen-1-yl]methyl]piperazin-1-yl]phenyl]sulfonyl)thieno[2,3-b]pyridine-6-carboxamide]
< 50%	CC1(C)CCC(CN2CCN(c3ccc(S(=O)(=O)NC(=O)C4CC=CCC4)cc3)CC2)=C(c2ccc(Cl)cc2)C1 (stereo not shown) [Example 28, N-([4-[4-[[2-(4-chlorophenyl)-4,4-dimethylcyclohexen-1-yl]methyl]piperazin-1-yl]phenyl]sulfonyl)cyclohex-3-ene-1-carboxamide]
< 50%	CC1(C)CCC(CN2CCN(c3ccc(S(=O)(=O)NC(=O)C4(c5ccc([N+](=O)[O-])cc5)CC4)cc3)CC2)=C(c2ccc(Cl)cc2)C1 [Example 29, N-([4-[4-[[2-(4-chlorophenyl)-4,4-dimethylcyclohexen-1-yl]methyl]piperazin-1-yl]phenyl]sulfonyl)-1-(4-nitrophenyl)cyclopropane-1-carboxamide]
50 to 90%	CC1(C)CCC(CN2CCN(c3ccc(S(=O)(=O)NC(=O)Cc4ccccc4F)cc3)CC2)=C(c2ccc(Cl)cc2)C1 [Example 30, N-([4-[4-[[2-(4-chlorophenyl)-4,4-dimethylcyclohexen-1-yl]methyl]piperazin-1-yl]phenyl]sulfonyl)-2-(2-fluorophenyl)acetamide]
< 50%	CC1(C)CCC(CN2CCN(c3ccc(S(=O)(=O)NC(=O)CCc4cccnc4)cc3)CC2)=C(c2ccc(Cl)cc2)C1 [Example 31, N-([4-[4-[[2-(4-chlorophenyl)-4,4-dimethylcyclohexen-1-yl]methyl]piperazin-1-yl]phenyl]sulfonyl)-3-(pyridin-3-yl)propanamide]
50 to 90%	Cc1cccc(COc2cccc(C(=O)NS(=O)(=O)c3ccc(N4CCN(CC5=C(c6ccc(Cl)cc6)CC(C)(C)CC5)CC4)cc3)c2)c1 [Example 34, N-([4-[4-[[2-(4-chlorophenyl)-4,4-dimethylcyclohexen-1-yl]methyl]piperazin-1-yl]phenyl]sulfonyl)-3-((3-methylbenzyl)oxy)benzamide]
> 90%	CC1(C)CCC(CN2CCN(c3ccc(S(=O)(=O)NC(=O)c4ccc(COc5cc(Cl)ccc5Cl)cc4)cc3)CC2)=C(c2ccc(Cl)cc2)C1 [Example 35, N-([4-[4-[[2-(4-chlorophenyl)-4,4-dimethylcyclohexen-1-yl]methyl]piperazin-1-yl]phenyl]sulfonyl)-4-((2,5-dichlorophenoxy)methyl)benzamide]
50 to 90%	CC1(C)CCC(CN2CCN(c3ccc(S(=O)(=O)NC(=O)c4ccc(OCc5ccccc5)c([N+](=O)[O-])c4)cc3)CC2)=C(c2ccc(Cl)cc2)C1 [Example 36, 4-(benzyloxy)-N-([4-[4-[[2-(4-chlorophenyl)-4,4-dimethylcyclohexen-1-yl]methyl]piperazin-1-yl]phenyl]sulfonyl)-3-nitrobenzamide]

Same assay, conditions: 10-concentration IC50 mode, 4 nM BCL-2 recombinant protein, 100 nM FAM-Bak, read-out: potency (IC50)

IC50	SMILES
> 1000 nM	CC1(C)CCC(CN2CCN(c3ccc(S(=O)(=O)NC(=O)c4cccc([N+](=O)[O-])c4)cc3)CC2)=C(c2ccc(Cl)cc2)C1 [Example 32, N-([4-[4-[[2-(4-chlorophenyl)-4,4-dimethylcyclohexen-1-yl]methyl]piperazin-1-yl]phenyl]sulfonyl)-3-nitrobenzamide]
10 to 100 nM	CC1(C)CCC(CN2CCN(c3ccc(S(=O)(=O)NC(=O)c4ccc(F)c(Br)n4)cc3)CC2)=C(c2ccc(Cl)cc2)C1 [Example 33, 6-bromo-N-([4-[4-[[2-(4-chlorophenyl)-4,4-dimethylcyclohexen-1-yl]methyl]piperazin-1-yl]phenyl]sulfonyl)-5-fluoropyridine-2-carboxamide]

Source: US11622970B2, “BCL-2 inhibitors and their use as pharmaceuticals” (PRELUDE THERAPEUTICS INCORPORATED, priority 2020, dated 2023)
